According to patent US20250177370A1, “METHOD FOR ALLEVIATING UTERINE LEIOMYOMA USING NICOTINAMIDE” (TAIPEI MEDICAL UNIVERSITY, priority 2023, published 2025):

Assays:
fibronectin = assay: Western blotting of ECM protein fibronectin in ELT-3 cells; format: cell-based, rat; details: 72 hours, normalized to GAPDH, vs control group
Protocol: (§1) First, the ELT-3 cells prepared in section 1 of “General Experimental Materials” were divided into 3 groups, including a control group, and two experimental groups (i.e., experimental groups 1 and 2). Each group of the ELT-3 cells was seeded at a concentration of 2×10^5 cells/well into a 10-cm Petri dish containing 2 mL of DMEM/F12 supplemented with 10% FBS and 1% penicillin-streptomycin, followed by cultivation in an incubator (37° C., 5% CO2) overnight.
(§2) Next, medium change was performed by adding a fresh culture medium supplemented with 1% FBS into the 10-cm Petri dish, followed by cultivation in an incubator (37° C., 5% CO2) for 24 hours. […]
(§3) After cultivation in an incubator (37° C., 5% CO2) for 72 hours, each of the cell cultures was mixed with 100 μL of a RIPA lysis buffer (BIOMAN, Cat. no. 20121701) containing protease inhibitor cocktail (Roche, Cat. no. 4693159001). […] The protein concentration in the total protein sample was determined using bicinchoninic acid (BCA) assay kit (T-Pro Biotechnology, Cat. no. JB04-D001) in accordance with the manufacturer's instructions. […]
(§4) Subsequently, ImageJ software was used for semi-quantitatively calculating the corresponding protein expression level. […]
(§5) The relative expression level was calculated using the following Equation (1): […]
(§6) The data thus obtained were analyzed according to the procedures as described in section 1 of “General Procedures”.

primary melanocytes = primary melanocytes with ultraviolet (UV) radiation-induced DNA damage; Thompson B. C. et al. (2014); cited from earlier work
[1] = system: collagen type I alpha 1 chain (COL1A1); assay: Western blotting of COL1A1 in ELT-3 cells; format: cell-based, rat; details: 72 hours, normalized to GAPDH, vs control group
Protocol: as §1, §2, §3, §4, §5, §6

[2] = system: alpha-smooth muscle actin (α-SMA); assay: Western blotting of α-SMA in ELT-3 cells; format: cell-based, rat; details: 72 hours, normalized to GAPDH, vs control group
Protocol: as §1, §2, §3, §4, §5, §6

[3] = system: Eker rat uterine leiomyoma cell line ELT-3; assay: Crystal violet staining assay (area density, viable cells); format: cell-based; details: ELT-3 cells, 48 hours, vs control group, p<0.001
Protocol: (§7) Eker rat uterine leiomyoma cell line ELT-3 was purchased from the American Type Culture Collection (ATCC, Manassas, Va., USA). The ELT-3 cells were grown in a 6 cm Petri dish containing Dulbecco's Modified Eagle's Medium (DMEM)/F12 [1:1 (v/v)] (Cassion, Cat. no. DFP29) supplemented with 10% fetal bovine serum (FBS, Corning Inc., Cat. no. 35-010-CV) and 1% antibiotic-antimycotic (Corning Inc., Cat. no. 30-004-CI). The ELT-3 cells were cultivated in an incubator at 37° C. with 5% CO2. Medium change was performed every two to three days. Cell passage was performed when the cultured cells reached 80% to 90% of confluence.
First, the ELT-3 cells prepared in section 1 of “General Experimental Materials” were divided into 3 groups, including a control group, and two experimental groups (i.e., experimental groups 1 and 2). Each group of the ELT-3 cells was seeded at a concentration of 1×10^5 cells/well into a respective well of 6-well culture plates containing 2 mL of DMEM/F12 supplemented with 10% FBS and 1% penicillin-streptomycin, followed by cultivation in an incubator (37° C., 5% CO2) for 24 hours.
(§8) Next, medium change was performed by adding a fresh culture medium supplemented with 1% FBS into the 6-well culture plate. […]
as §6

[4] = system: Eker rat uterine leiomyoma cell line ELT-3; assay: Colony formation assay; format: cell-based; details: ELT-3 cells, 3 days treatment then 7 to 10 days, vs control group, p<0.05
Protocol: as §7
First, the ELT-3 cells prepared in section 1 of “General Experimental Materials” were divided into 3 groups, including a control group, and two experimental groups (i.e., experimental groups 1 and 2). Each group of the ELT-3 cells was seeded at a concentration of 5×10^2 cells/well into a respective well of 6-well culture plates containing 2 mL of DMEM/F12 supplemented with 10% FBS and 1% penicillin-streptomycin, followed by cultivation in an incubator (37° C., 5% CO2) for 24 hours.
as §8, §6

[5] = 20 mM nicotinamide (experimental group 1)
[6] = 50 mM nicotinamide (experimental group 2)

NC(=O)c1cccnc1 [nicotinamide]
relative expression level of fibronectin (fibronectin; 20 mM nicotinamide): significantly decreased
relative expression level of fibronectin (fibronectin; 50 mM nicotinamide): significantly decreased
DNA repair (primary melanocytes): enhances DNA repair
relative expression level of COL1A1 ([1]; 20 mM nicotinamide): significantly decreased
relative expression level of COL1A1 ([1]; 50 mM nicotinamide): significantly decreased
relative expression level of α-SMA ([2]; 20 mM nicotinamide): significantly decreased
relative expression level of α-SMA ([2]; 50 mM nicotinamide): significantly decreased
area density [3, 5]: significant decrease
area density [3, 6]: significant decrease
colony density [4, 5]: significant decrease
colony density [4, 6]: significant decrease
